Results from patent US7186553B1, “Human derived immortalized liver cell line” (Takeda Pharmaceutical Company Limited, priority 1998, dated 2007).

Tests used:
[1] = system: CYP1A1; experiment: Induction of expression of the CYP1A1 gene in OUMS-29 cells (RT-PCR); settings: 1 day after addition, 3-MC 0 to 10000 nM, BP 0 to 50000 nM, PB 0 to 25 mM, corrected to beta-actin mRNA
Source text: (§1) The expression of cytochrome P450 in the OUMS-29 culture can be analyzed by assessing the level of mRNA content by the commonly known RT-PCR method using DNA primers specific to different types of cytochrome P450. These primers can be prepared from the sequences of the respective types of cytochrome P450 available from the Gene Bank database. The accession numbers at the Gene Bank are K03191 for CYP1A1, M55053 for CYP1A2, J02625 for CYP2E1, J04449 for CYP3A4, J04813 for CYP3A5, and D00408 for CYP3A7. The individual primers used were
(§2) The OUMS-29 culture was cultured for 5 to 7 days; the cells becoming confluent were harvested, from which RNA was extracted using the RNAeasy kit (Quiagen). This RNA, along with the previously determined primers specific to the respective types of cytochrome P450, was subjected to reverse transcription from mRNA and PCR using an one-step PCR kit (Takara Shuzo), after which it was separated using agarose gel and visualized with ultraviolet rays in the presence of ethidium bromide.
(§3) The cultured cells were separated, from which RNA was extracted using the method described above and subjected to RT-PCR.
(§4) Regarding annealing conditions for the RT-PCR method, the annealing temperatures were 55° C. for CYP1A1, 65° C. for CYP1A2, and 55° C. for CYP3A, the cycle numbers being 28 to 36 cycles.
The cycle number for beta-actin, serving as a control, was 15 cycles.
In this operation, an actin competitive RT-PCR kit (Takara Shuzo) was used to correct the total mRNA content in each sample with reference to the mRNA content of beta-actin, which is expressed to the same extent in all tissues.

[2] = system: CYP1A2; experiment: Induction of expression of the CYP1A2 gene in OUMS-29 cells (RT-PCR); settings: 1 day after addition, 3-MC 0 to 10000 nM, BP 0 to 50000 nM, corrected to beta-actin mRNA
Source text: as §1, §2, §3, §4
The cycle number for beta-actin, serving as a control, was 15 cycles. […]

[3] = molecular target: T1, NADPH cytochrome P450 reductase (Homo sapiens, UniProt P16435); experiment: Cytochrome P450 reductase activity of enzyme source of OUMS-29 origin (cytochrome C reduction); format: in vitro ADME; settings: disrupted OUMS-29 cells, with NADPH; 1 unit = reducing 1 nanomol of cytochrome C per milligram of protein per minute
T1 construct: disrupted using an ultrasound generator; this suspension was used as the enzyme source; endogenous in cells; host or cells: OUMS-29 (SV40 T antigen-immortalized human fetal hepatocytes), sonicated cell suspension
T1 sequence (P16435 1-677): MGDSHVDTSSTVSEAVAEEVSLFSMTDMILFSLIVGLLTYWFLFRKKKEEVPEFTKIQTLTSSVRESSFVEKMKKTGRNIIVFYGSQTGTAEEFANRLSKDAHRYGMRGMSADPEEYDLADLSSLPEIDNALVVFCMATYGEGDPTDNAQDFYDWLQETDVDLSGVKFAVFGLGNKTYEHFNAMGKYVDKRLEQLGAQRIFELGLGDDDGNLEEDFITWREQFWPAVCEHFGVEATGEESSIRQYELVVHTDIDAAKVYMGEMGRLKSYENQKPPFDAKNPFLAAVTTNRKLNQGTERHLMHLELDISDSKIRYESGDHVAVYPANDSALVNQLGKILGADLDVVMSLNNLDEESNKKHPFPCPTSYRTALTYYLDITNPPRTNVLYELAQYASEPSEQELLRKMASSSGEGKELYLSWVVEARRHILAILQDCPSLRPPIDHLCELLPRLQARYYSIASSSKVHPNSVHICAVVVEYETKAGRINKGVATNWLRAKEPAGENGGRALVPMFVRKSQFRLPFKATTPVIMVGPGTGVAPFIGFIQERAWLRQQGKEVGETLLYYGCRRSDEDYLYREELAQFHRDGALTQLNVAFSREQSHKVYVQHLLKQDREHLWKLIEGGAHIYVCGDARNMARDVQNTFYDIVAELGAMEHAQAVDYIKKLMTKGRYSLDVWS
Method: Specifically, cytochrome P450 reductase activity was determined on the basis of cytochrome C reduction in the presence of NADPH (reduced nicotinamide adenine dinucleotide phosphate) and an enzyme source of OUMS-29 origin with cytochrome C as the substrate.

Row | Molecule | expression of CYP1A1 (mRNA, RT-PCR) [1] | expression of CYP1A2 (mRNA, RT-PCR) [2] | cytochrome C reduction (cytochrome P450 reductase activity) [3] [units]
1 | Cc1ccc2cc3c(ccc4ccccc43)c3c2c1CC3 [3-methylcholanthrene] | enhanced | enhanced | –
2 | c1ccc2c(c1)c1cccc3ccc4cccc2c4c31 [benzpyrene] | enhanced | enhanced | –
3 | CCC1(c2ccccc2)C(=O)NC(=O)NC1=O [phenobarbitone] | enhanced | – | –
4 | cytochrome C | – | – | 8
